According to patent publication US20120245121A1, “METHODS FOR IMPROVING BONE HEALTH IN INFANTS USING LONG CHAIN POLYUNSATURATED FATTY ACIDS” (ABBOTT LABORATORIES, priority 2011, published 2012):

Experiments:
Format in all cases: in vivo, Sprague-Dawley rats
rat offspring [1] = experiment: Micro-CT vertebra cortical architecture of rat offspring after maternal diet supplementation; settings: adolescence
Description: Fifty 10-week-old pregnant Sprague-Dawley rats at the eleventh day of gestation (Charles Rivers Laboratories, Orleans Cedex, France) are housed under standardized environmental conditions (22° C., relative humidity of 50%, artificial lighting on for 12 hours/day) and are given free access to deionized water during the test period. The rats are randomly divided into five groups of feeding (n=10/group): (1) Control Group (“Control”), who receives a standard purified rodent diet (SPRD); […] (3) Prebiotic group (“Prebiotic”), who receives the SPRD containing 7.5% of the total carbohydrate as inulin-type fructans (Synergy-1®, Orafti, Belgium); […] During their suckling period, the pups receive only the dam's milk. […] Sacrifices of rat pups are carried out at birth, weaning and at the end of the adolescence period. The whole bone mineral density (BMD) and bone mineral content (BMC) of the skeleton are measured at birth and at weaning by using a pDEXA densitometer (Norland Corp., Fort Atkinson, Wis., USA). In adolescent offspring, the determination of BMC and BMD are analyzed in isolated bones (femur, tibia and vertebrae). Determination of the trabecular architecture parameters (trabecular thickness, separation and number), bone length and bone volume fraction (BV/TV) is analyzed by Micro-computed tomography (micro-CT). Micro-CT analysis is carried out by the Bone & Joint Research Group (University of Southampton, UK) and cortical parameters are performed by SCANCO Medical AG (Brüttisellen, Switzerland). In the present Example, femoral, tibia and vertebra cancellous bones are assessed using Metris (XTek) Benchtop 160Xi CT scanner (University of Southampton) and vertebra cortical bone is assessed using MicroCT-40 computed tomography system (Scanco Medical, Basserdorf, Switzerland). […] Micro-CT analysis also allows for the determination of various quality properties of the cortical bone. The bone fragility is influenced not only by the architecture but also by the tissue “quality”. The strength of a bone as an organ depends on the material properties of bone as a tissue. Stiffness, or the resistance of the whole bone to deformation by a load, is a key material property and requires a destructive mechanical technique if measurements are done in vivo. The non-destructive analysis of the volumetric bone mineral density of cortical bone (cortical vBMD) by micro CT has an approximately linear relationship with the stiffness of the cortical bone. Cortical thickness (C.Th) is one of the variables that helps to evaluate the modeling-derived changes provoked by growth. The cortical porosity (C.Sp) reflects the intracortical remodeling in the bone. […] Results are expressed as mean±SEM, and the probability level at which the differences are considered significant is set at p<0.05. […]

rat offspring [2] = experiment: Micro-CT trabecular architecture and bone length of rat offspring after maternal diet supplementation
Description: Fifty 10-week-old pregnant Sprague-Dawley rats at the eleventh day of gestation (Charles Rivers Laboratories, Orleans Cedex, France) are housed under standardized environmental conditions (22° C., relative humidity of 50%, artificial lighting on for 12 hours/day) and are given free access to deionized water during the test period. The rats are randomly divided into five groups of feeding (n=10/group): (1) Control Group (“Control”), who receives a standard purified rodent diet (SPRD); […] (3) Prebiotic group (“Prebiotic”), who receives the SPRD containing 7.5% of the total carbohydrate as inulin-type fructans (Synergy-1®, Orafti, Belgium); […] During their suckling period, the pups receive only the dam's milk. […] Sacrifices of rat pups are carried out at birth, weaning and at the end of the adolescence period. The whole bone mineral density (BMD) and bone mineral content (BMC) of the skeleton are measured at birth and at weaning by using a pDEXA densitometer (Norland Corp., Fort Atkinson, Wis., USA). In adolescent offspring, the determination of BMC and BMD are analyzed in isolated bones (femur, tibia and vertebrae). Determination of the trabecular architecture parameters (trabecular thickness, separation and number), bone length and bone volume fraction (BV/TV) is analyzed by Micro-computed tomography (micro-CT). Micro-CT analysis is carried out by the Bone & Joint Research Group (University of Southampton, UK) and cortical parameters are performed by SCANCO Medical AG (Brüttisellen, Switzerland). Micro-computed tomography (micro-CT) is a technique for the nondestructive assessment and analysis of the three-dimensional trabecular and cortical bone structural properties. Scanning with micro-CT can be achieved at resolutions as low as 5 μm, allowing for the determination of porosities and subtle modeling and remodeling events of the bone tissue. Furthermore, true three-dimensional image reconstructions permit the assessment of bone microarchitecture as a three dimensional structure, providing critical information to images collected through histomorphometry. In the present Example, femoral, tibia and vertebra cancellous bones are assessed using Metris (XTek) Benchtop 160Xi CT scanner (University of Southampton) and vertebra cortical bone is assessed using MicroCT-40 computed tomography system (Scanco Medical, Basserdorf, Switzerland). […] Results are expressed as mean±SEM, and the probability level at which the differences are considered significant is set at p<0.05. One-way ANOVA is used to evaluate differences attributable to the diet in the different markers, previously testing the homogeneity of variances by Levene's. A posteriori post hoc tests are carried out by the Dunnet test.

rat offspring [3] = experiment: pDEXA bone mineral density (BMD) and bone mineral content (BMC) of rat offspring after maternal diet supplementation; settings: for lumbar vertebra BMC with respect to Control group / lumbar vertebra BMD with respect to Control group: adolescence
Description: Fifty 10-week-old pregnant Sprague-Dawley rats at the eleventh day of gestation (Charles Rivers Laboratories, Orleans Cedex, France) are housed under standardized environmental conditions (22° C., relative humidity of 50%, artificial lighting on for 12 hours/day) and are given free access to deionized water during the test period. The rats are randomly divided into five groups of feeding (n=10/group): (1) Control Group (“Control”), who receives a standard purified rodent diet (SPRD); […] (3) Prebiotic group (“Prebiotic”), who receives the SPRD containing 7.5% of the total carbohydrate as inulin-type fructans (Synergy-1®, Orafti, Belgium); […] During their suckling period, the pups receive only the dam's milk. […] Sacrifices of rat pups are carried out at birth, weaning and at the end of the adolescence period. The whole bone mineral density (BMD) and bone mineral content (BMC) of the skeleton are measured at birth and at weaning by using a pDEXA densitometer (Norland Corp., Fort Atkinson, Wis., USA). In adolescent offspring, the determination of BMC and BMD are analyzed in isolated bones (femur, tibia and vertebrae). Determination of the trabecular architecture parameters (trabecular thickness, separation and number), bone length and bone volume fraction (BV/TV) is analyzed by Micro-computed tomography (micro-CT). Micro-CT analysis is carried out by the Bone & Joint Research Group (University of Southampton, UK) and cortical parameters are performed by SCANCO Medical AG (Brüttisellen, Switzerland). DEXA scan is a technique used in the clinical practice for the analysis of bone health. Two main bone properties can be measured by this technique: Bone Mineral Content (BMC) and areal Bone Mineral Density (BMD). BMC determines the mass of mineral present in the whole body or in the selected skeletal region. BMC changes reflect the result of the metabolic “mass” balance between bone formation and bone destruction. BMC represented relative to the projected bone area refers to BMD. […] The manufacturer's software for research in small animals calculates BMC and BMD for the isolated bone. Femur is measured from the femoral neck to the knee joint. Tibia is measured from the knee joint to the joint between tibia and calcaneus, also including fibula. […] Results are expressed as mean±SEM, and the probability level at which the differences are considered significant is set at p<0.05. One-way ANOVA is used to evaluate differences attributable to the diet in the different markers, previously testing the homogeneity of variances by Levene's. A posteriori post hoc tests are carried out by the Dunnet test.

[4] = at delivery, appendicular bones

| Molecule | vertebra cortical porosity (rat offspring [1]) | vertebra cortical vBMD (rat offspring [1]) | vertebrae cortical thickness (rat offspring [1]) | vertebra BV/TV enhanced in comparison with Control group (rat offspring [2]; adolescence) [%] | vertebra trabecular separation respective to Control group (rat offspring [2]; adolescence) | vertebra trabecular thickness enhanced in comparison with Control group (rat offspring [2]; adolescence) [%] | trabecular number of femur and tibia vs Control group (rat offspring [2]; [4]) | trabecular thickness of femur and tibia vs Control group (rat offspring [2]; [4]) | femur length represented versus body weight (rat offspring [2]; at delivery, no difference to Control group) | trabecular separation of femur and tibia vs Control group (rat offspring [2]; at delivery, statistical differences not achieved) | increase in vertebra trabecular thickness respective to Control group (rat offspring [2]; at weaning) [%] | vertebra BV/TV ratio respective to Control group (rat offspring [2]; at weaning) | vertebra trabecular separation respective to Control group (rat offspring [2]; at weaning) | lumbar vertebra BMC with respect to Control group (rat offspring [3]) | lumbar vertebra BMD with respect to Control group (rat offspring [3]) | vertebra cortical features (rat offspring [1]) | vertebra structural parameters (BV/TV, trabecular thickness) (rat offspring [2]; adolescence) | whole body BMC relative to Control group (rat offspring [3]; at weaning) |
| --- | --- | --- | --- | --- | --- | --- | --- | --- | --- | --- | --- | --- | --- | --- | --- | --- | --- | --- |
| O=C([O-])[O-].[Ca+2] [Calcium, calcium carbonate] | decrease | increase | without significantly affecting | 22 | significant decrease | 17 | greater | lower | 0.572±0.04 | decrease | ~30 | statistically different | statistically different | no differences | no differences | – | – | – |
| Vitamin D | – | – | – | – | – | – | – | – | – | – | – | – | – | no differences | no differences | does not show any improvement | No effect | lower |
